# Literature values in PMC6738313 (The Oncologist, 2019).
# How the values were obtained:
# [1] = test system: patients with metastatic renal cell carcinoma
# [2] = test system: CYP3A4/5; settings: clinical data
# [3] = test system: first-line poor- or intermediate-risk patients with mRCC; settings: CABOSUN
compound,measurement,setting,value
CNC(=O)c1ccccc1Sc1ccc2c(/C=C/c3ccccn3)n[nH]c2c1 [Axitinib],Progression-free survival (PFS),"[1]; axitinib single agent, first-line therapy, 95% CI 7.2–12.1",10.1 months
same,Objective response rate (ORR),"[1]; single-agent axitinib, first-line mRCC, phase III trial versus sorafenib",32%
same,Metabolic pathway,[2],primarily metabolized by CYP3A4/5
COc1cc2nccc(Oc3ccc(NC(=O)C4(C(=O)Nc5ccc(F)cc5)CC4)cc3)c2cc1OC [cabozantinib],Estimated progression-free survival (PFS),[3]; 95% CI 6.2–8.8,8.2 months
same,Objective response rate (ORR),[3]; first-line poor- or intermediate-risk patients with mRCC,46%
"C[C@@H](Oc1cc(-c2cnn(C3CCNCC3)c2)cnc1N)c1c(Cl)ccc(F)c1Cl [crizotinib, Crizotinib]",CYP3A4/5 inhibition (classification),[2],moderate time‐dependent CYP3A4/5 inhibitor
